Assay [1] addresses Fibroblast growth factor receptor 4 (Homo sapiens) (UniProt P22455). The assay is described as follows: Inhibition of FGFR4 at 1 uM; values are per cent of control.
The target of assay [2] is T1, Dual specificity mitogen-activated protein kinase kinase 7 (Homo sapiens) (UniProt O14733).
T1 sequence (whole entry): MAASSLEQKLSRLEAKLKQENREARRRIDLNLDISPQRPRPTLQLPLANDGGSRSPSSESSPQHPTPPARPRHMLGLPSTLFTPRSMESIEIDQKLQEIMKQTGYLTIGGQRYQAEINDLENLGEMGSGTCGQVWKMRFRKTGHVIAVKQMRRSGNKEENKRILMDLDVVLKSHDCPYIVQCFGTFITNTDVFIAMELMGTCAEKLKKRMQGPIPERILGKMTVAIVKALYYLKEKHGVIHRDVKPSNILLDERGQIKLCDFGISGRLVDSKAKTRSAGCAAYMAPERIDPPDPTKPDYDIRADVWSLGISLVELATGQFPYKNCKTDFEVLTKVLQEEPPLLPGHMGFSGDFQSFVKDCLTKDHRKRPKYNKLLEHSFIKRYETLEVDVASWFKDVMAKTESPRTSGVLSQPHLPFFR
The assay is described as follows: Inhibition of MKK7beta at 0.1 uM; values are per cent of control.

In assay [3] the target is Platelet-derived growth factor receptor beta (Homo sapiens) (UniProt P09619). As to the kind of experiment: Inhibition of PDGFRbeta at 0.1 uM; values are per cent of control.
In assay [4] the target is Interleukin-1 receptor-associated kinase 1 (Homo sapiens) (UniProt P51617). The assay is described as follows: Inhibition of IRAK1 at 0.1 uM; values are per cent of control.
In assay [5] the target is Protein kinase C theta type (Homo sapiens) (UniProt Q04759). As to the kind of experiment: Inhibition of PKCtheta at 0.1 uM; values are per cent of control.
Assay [6] concerns the target Mitogen-activated protein kinase 11 (Homo sapiens) (UniProt Q15759). The assay is described as follows: Inhibition of SAPK2b at 1 uM.
Assay [7] deals with T2, Mitogen-activated protein kinase kinase kinase 7 (Homo sapiens) (UniProt O43318).
T2 sequence (whole entry): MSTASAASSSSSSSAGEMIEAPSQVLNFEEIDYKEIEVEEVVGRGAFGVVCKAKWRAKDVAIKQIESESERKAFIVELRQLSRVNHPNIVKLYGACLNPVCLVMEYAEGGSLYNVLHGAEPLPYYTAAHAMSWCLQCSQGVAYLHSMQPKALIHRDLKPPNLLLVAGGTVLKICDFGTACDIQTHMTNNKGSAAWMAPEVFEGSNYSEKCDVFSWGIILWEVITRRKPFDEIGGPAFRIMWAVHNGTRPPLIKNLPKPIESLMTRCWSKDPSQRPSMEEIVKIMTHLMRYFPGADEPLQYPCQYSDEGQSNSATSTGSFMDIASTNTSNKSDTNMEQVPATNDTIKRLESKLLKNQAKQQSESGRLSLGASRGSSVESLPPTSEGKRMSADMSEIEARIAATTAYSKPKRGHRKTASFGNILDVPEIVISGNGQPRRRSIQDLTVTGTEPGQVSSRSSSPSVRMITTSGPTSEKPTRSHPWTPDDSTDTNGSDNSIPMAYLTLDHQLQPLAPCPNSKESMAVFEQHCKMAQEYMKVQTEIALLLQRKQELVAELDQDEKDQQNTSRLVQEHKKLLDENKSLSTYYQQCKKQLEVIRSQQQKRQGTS
As to the kind of experiment: Inhibition of TAK1 at 0.1 uM; values are per cent of control.

The target of assay [8] is Tyrosine-protein kinase Lck (Homo sapiens) (UniProt P06239). The assay is described as follows: Inhibition of Lck at 0.1 uM; values are per cent of control.
A short description of assay [9]: Inhibition of PDK1 at 0.1 uM.
The target in assay [10] is LIM domain kinase 1 (Homo sapiens) (UniProt P53667). The assay is described as follows: Inhibition of LIMK1 at 1 uM; values are per cent of control.
Assay [11] deals with ALK tyrosine kinase receptor (Homo sapiens) (UniProt Q9UM73). As to the kind of experiment: Inhibition of ALK at 1 uM; values are per cent of control.
Assay [12] concerns the target Mitogen-activated protein kinase 10 (Homo sapiens) (UniProt P53779). The assay is described as follows: Inhibition of JNK3 at 0.1 uM; values are per cent of control.
For assay [13], the target named is T3, Ephrin type-A receptor 3 (Homo sapiens) (UniProt P29320).
T3 sequence (whole entry): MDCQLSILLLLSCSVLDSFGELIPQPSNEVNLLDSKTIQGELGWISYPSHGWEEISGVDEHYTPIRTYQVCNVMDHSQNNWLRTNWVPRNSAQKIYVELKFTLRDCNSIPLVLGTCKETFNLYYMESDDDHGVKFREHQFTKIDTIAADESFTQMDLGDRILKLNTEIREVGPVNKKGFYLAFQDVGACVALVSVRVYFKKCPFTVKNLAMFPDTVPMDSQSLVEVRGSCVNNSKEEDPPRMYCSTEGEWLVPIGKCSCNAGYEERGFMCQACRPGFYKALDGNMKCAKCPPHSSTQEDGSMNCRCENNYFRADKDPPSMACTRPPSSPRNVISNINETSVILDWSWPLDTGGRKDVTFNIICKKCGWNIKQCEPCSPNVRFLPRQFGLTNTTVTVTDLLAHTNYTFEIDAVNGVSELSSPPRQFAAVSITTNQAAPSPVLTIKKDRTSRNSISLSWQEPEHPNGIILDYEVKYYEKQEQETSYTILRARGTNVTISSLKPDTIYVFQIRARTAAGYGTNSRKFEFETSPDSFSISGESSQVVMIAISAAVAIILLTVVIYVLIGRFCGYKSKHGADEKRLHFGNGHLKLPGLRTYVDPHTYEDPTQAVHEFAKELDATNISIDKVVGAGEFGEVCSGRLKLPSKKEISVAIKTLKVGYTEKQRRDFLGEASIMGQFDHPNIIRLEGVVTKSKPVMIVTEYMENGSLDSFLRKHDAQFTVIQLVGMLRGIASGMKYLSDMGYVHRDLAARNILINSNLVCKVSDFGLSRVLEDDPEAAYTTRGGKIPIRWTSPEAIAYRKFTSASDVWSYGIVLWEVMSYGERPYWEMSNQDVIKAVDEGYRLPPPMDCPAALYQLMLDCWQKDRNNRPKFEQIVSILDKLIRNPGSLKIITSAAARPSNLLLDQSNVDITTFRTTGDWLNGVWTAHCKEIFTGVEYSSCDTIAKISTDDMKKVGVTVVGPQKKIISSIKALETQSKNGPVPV
The assay is described as follows: Inhibition of EphA3 at 1 uM; values are per cent of control.

Assay [14] has as its target Fibroblast growth factor receptor 3 (Homo sapiens) (UniProt P22607). The assay is described as follows: Inhibition of FGFR3 at 1 uM; values are per cent of control.

The structures appear in SMILES notation.

One may read the inhibition as how much of the control response was suppressed. A higher inhibition goes with strong suppression.

Chain of Interleukin-1 receptor-associated kinase 1 (Homo sapiens) (P51617 whole entry, looked up): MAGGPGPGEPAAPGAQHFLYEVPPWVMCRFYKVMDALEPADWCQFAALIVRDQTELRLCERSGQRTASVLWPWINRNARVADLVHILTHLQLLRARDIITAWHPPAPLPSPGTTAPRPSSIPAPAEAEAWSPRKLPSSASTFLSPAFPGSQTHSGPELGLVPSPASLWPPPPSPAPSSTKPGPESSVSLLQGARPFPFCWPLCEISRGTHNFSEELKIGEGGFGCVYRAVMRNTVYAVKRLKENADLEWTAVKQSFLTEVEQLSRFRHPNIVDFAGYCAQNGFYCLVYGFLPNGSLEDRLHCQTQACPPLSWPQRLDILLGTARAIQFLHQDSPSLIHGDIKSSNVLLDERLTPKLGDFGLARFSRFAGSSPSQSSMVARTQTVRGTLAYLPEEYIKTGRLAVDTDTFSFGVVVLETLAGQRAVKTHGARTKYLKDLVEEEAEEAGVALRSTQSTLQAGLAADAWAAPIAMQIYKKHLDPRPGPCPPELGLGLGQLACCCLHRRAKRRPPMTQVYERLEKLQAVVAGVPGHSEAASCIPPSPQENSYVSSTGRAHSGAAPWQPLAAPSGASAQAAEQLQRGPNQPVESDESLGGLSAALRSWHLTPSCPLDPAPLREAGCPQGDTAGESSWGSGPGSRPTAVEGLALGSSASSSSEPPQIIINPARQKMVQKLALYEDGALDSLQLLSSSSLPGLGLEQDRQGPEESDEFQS
Chain of ALK tyrosine kinase receptor (Homo sapiens) (Q9UM73 19-1620 limits assumed): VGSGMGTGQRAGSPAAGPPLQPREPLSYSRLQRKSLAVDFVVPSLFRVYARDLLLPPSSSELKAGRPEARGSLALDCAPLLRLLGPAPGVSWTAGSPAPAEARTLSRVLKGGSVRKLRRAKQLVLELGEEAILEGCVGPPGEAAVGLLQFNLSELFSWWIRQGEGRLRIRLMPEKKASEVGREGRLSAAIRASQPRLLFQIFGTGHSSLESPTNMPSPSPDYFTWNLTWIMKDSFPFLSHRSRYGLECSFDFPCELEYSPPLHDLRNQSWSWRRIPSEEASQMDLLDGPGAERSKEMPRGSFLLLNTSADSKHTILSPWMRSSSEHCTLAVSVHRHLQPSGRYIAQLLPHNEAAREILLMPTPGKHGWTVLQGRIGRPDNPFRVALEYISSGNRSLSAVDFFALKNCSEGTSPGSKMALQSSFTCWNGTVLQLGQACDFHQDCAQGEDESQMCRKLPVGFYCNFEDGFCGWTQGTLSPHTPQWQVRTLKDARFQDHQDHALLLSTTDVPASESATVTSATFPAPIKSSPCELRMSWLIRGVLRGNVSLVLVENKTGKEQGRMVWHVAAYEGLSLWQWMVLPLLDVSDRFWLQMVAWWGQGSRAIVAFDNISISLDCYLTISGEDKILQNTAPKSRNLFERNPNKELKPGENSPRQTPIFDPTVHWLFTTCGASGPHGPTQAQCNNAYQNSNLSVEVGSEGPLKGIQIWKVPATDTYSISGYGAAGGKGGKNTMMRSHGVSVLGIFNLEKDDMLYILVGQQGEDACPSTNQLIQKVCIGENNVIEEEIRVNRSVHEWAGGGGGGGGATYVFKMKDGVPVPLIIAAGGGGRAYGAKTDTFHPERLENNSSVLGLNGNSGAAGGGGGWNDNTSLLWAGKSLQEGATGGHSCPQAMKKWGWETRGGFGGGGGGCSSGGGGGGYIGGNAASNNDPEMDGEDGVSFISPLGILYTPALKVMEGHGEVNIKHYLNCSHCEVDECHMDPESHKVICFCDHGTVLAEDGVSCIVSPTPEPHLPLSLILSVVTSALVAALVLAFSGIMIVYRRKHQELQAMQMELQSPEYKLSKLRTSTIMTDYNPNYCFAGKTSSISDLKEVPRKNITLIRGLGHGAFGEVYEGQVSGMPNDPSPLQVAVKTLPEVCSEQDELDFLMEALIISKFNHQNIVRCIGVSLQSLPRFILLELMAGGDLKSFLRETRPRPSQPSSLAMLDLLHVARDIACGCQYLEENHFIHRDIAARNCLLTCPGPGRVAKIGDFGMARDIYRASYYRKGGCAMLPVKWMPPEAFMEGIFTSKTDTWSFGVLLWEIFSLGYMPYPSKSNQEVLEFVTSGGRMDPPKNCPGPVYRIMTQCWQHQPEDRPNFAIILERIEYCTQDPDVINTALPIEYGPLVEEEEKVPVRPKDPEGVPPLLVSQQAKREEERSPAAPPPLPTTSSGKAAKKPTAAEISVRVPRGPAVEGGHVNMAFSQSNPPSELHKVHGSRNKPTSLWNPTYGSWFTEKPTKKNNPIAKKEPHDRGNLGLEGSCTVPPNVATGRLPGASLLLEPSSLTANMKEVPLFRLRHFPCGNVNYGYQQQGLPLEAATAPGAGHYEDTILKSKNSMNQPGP
Chain of LIM domain kinase 1 (Homo sapiens) (P53667 whole entry, looked up, the tested form may be a part): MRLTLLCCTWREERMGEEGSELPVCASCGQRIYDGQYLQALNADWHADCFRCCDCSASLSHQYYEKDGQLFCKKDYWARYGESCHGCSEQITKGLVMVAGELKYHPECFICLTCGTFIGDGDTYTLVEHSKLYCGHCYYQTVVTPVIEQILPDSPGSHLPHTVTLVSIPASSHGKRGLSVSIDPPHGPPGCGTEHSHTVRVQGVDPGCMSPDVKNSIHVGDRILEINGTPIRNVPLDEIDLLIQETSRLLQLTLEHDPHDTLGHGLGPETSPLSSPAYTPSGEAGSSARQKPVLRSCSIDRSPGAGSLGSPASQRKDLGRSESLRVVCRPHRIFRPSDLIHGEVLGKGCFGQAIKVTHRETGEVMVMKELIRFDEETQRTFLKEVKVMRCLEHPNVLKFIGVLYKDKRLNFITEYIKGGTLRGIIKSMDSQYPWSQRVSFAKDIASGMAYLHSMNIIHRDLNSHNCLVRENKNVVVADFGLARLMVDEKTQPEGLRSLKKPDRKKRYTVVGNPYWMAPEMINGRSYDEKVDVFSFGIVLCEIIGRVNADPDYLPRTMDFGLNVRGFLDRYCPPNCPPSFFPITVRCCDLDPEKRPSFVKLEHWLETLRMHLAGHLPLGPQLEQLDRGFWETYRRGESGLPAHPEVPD
Chain of Fibroblast growth factor receptor 3 (Homo sapiens) (P22607 23-806 limits assumed): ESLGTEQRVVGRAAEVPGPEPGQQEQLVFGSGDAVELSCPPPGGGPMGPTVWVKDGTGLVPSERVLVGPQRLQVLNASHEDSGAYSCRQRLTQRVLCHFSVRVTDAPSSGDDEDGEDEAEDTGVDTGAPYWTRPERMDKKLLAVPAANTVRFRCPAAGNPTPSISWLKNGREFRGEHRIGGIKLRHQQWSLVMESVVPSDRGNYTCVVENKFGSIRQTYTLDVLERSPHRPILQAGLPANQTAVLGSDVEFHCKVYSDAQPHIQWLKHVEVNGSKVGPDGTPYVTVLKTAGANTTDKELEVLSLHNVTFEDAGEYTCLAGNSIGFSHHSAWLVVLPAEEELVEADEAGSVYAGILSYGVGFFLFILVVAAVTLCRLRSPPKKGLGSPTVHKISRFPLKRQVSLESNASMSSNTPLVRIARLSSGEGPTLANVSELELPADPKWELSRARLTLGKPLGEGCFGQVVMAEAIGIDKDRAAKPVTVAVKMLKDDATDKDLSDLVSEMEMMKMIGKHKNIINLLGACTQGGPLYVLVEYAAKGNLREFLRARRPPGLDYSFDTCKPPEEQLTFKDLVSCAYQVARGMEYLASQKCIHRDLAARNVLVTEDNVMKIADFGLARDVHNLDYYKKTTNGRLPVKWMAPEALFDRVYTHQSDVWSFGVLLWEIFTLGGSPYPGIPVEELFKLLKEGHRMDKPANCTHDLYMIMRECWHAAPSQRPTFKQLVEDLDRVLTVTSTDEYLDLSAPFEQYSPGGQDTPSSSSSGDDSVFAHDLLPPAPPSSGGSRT
Chain of Tyrosine-protein kinase Lck (Homo sapiens) (P06239 2-509 limits assumed): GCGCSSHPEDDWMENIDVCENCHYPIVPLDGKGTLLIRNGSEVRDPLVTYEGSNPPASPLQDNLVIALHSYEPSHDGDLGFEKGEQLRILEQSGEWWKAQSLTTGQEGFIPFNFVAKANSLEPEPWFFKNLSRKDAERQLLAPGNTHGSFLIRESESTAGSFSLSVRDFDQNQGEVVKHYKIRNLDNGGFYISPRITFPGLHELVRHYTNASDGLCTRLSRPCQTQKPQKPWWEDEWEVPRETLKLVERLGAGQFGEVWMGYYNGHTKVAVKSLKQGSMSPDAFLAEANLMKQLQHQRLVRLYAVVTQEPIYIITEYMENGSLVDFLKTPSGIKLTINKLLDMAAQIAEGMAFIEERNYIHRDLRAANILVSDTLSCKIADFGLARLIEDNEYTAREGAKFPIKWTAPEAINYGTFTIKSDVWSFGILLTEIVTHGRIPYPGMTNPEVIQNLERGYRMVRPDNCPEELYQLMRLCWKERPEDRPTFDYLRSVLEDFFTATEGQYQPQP
Chain of Mitogen-activated protein kinase 10 (Homo sapiens) (P53779 whole entry): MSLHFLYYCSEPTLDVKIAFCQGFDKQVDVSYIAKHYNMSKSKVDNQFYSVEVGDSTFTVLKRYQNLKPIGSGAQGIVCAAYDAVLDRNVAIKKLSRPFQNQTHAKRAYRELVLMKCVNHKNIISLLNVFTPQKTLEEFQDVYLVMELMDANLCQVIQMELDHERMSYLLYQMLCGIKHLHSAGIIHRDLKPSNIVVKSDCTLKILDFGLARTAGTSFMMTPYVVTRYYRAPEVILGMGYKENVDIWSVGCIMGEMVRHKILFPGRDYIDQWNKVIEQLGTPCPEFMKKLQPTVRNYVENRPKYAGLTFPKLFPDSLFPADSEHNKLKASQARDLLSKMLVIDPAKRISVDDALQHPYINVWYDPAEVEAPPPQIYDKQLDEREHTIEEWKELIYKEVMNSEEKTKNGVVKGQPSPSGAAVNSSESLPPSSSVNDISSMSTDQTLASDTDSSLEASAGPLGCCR

In the case of `Cc1ccc2cc(-c3n[nH]c4ccc(NC5CCNC5)cc34)[nH]c2c1` (stereo not drawn), the residual activity was 6% in [1]; 98% in [2]; 85% in [3]; 56% in assay [4]; 74% in [5]; 73% in [7]. The residual activity in assay [8] worked out at 27%; in assay [10], 4%; in assay [11], 5%; in assay [12], 73%; in assay [13], 29%; in assay [14], 1%. Moreover, the inhibition is 91% in assay [6] and 46% in [9].

On to `Cc1ccc2cc(-c3n[nH]c4ccc(NC5CCN(Cc6ccccc6)CC5)cc34)[nH]c2c1`, for which the residual activity in assay [1] turned out to be 10%; in assay [2], 103%; in assay [3], 82%; in assay [4], 47%; in assay [5] it was 45%; in assay [7] it was 84%. Besides, the residual activity in assay [8] was 61%; in assay [10], 73%; in assay [11], 4%; in [12], 98%; in assay [13] it was 14%; in assay [14] it was -3%. Further, the inhibition in [6] was found to be 86%; in assay [9] it was 87%.
